{"source": "patent US20250161310A1", "about": "“PHARMACEUTICAL COMBINATIONS FOR USE IN THE TREATMENT OF NEOPLASTIC DISEASES” (priority 2022, published 2025)", "key": {"[1]": {"tested_on": "BR1282 TNBC PDX tumor", "assay": "first PDX combination study (carboplatin first), BR1282", "experimental": "In a first PDX study, female BALB/c nude mice (CrownBio) of at least 20 g body weight were subcutaneously (s.c.) inoculated in the right flank with tumor fragments (3*3*3 mm) from stock mice bearing the patient-derived xenograft (PDX) triple negative breast cancer (TNBC) tumor, BR1282. Randomization into 5 different treatment groups (8 mice per group) was made when the mean tumor size was 150-200 mm^3. Mice were dosed intravenously (i.v.) twice weekly (2qw) with the compound of formula (I) (7 mg/kg, i.v., 5 mL/kg) or once weekly (qw) carboplatin (60 mg/kg, i.v., 10 mL/kg) or the combination of these doses, in which the compound of formula (I) was administered after carboplatin using either a 4 h or a 24 h gap, when both compounds were administered on the same day/consecutive days. The fifth group received both vehicles using the time interval of 4 h and all groups were dosed twice via the tail vein. Dosing was delayed by 1 day in any mice showing transient body weight loss of >10% at any time point.\n(§1) Carboplatin was purchased from Qilu Pharmaceutical Co. Ltd. as a solution (10 mg/mL in 5% (w/v) glucose in pure water). The compound of formula (I) was supplied as a powder by Basilea Pharmaceutica International Ltd. and was prepared freshly as a solution in Ethanol:PEG400:Citric acid 20 mM, at a ratio of 1:1:8 and at a final pH of 3.7, for immediate administration.\n(§2) Body weights and tumor volumes were determined at least twice per week, the latter by measuring two dimensions with calipers and applying the formula “V=(L×W^2)/2”, where V is the tumor volume, and L and W are the tumor length and width re-spectively. […] Mice were also culled if the BWL was determined to be >15% for 3 consecutive days. Any mice with >10% BWL, automatically were dosed on one of the following days, as soon as the BWL returned to <10%. All animal protocols were reviewed and approved by the relevant local committees in China, where the studies were performed.\n(§3) The statistical significance of efficacy were determined in two different ways using a) the endpoint on day 10 or day 14 depending on the study when it was necessary to cull the vehicle group because of tumor volume exceeding 1500 mm^3, and b) at the endpoint of day 31 in the first study when exponential curve fits were applied to estimate the rates of tumor growth in the different groups. The degree of an effect was quantified by the delta (A) treated/control ratio (ΔT/C) and the statistical significance of the effect was determined by a one-way analysis of variance (1W-ANOVA) with Holms-Sidak applied post-hoc for multiple determinations, where a p-value of <0.05 was considered statistically significant. In addition, an assessment of the combination effect was made based upon the Clarkes Combination Index (CCI), where the CCI=ΔT/CAB−(ΔT/CA*ΔT/CB) in which A and B are two different compounds and AB the combination thereof, where CCI<−0.1 indicates synergy (or a positive interaction), +0.1 (antagonism, or a negative interaction) and between −0.1 and +0.1 indicates additivity (no interaction); see O'Reilly et al. Anti Cancer Drugs 2011; 22:58-78."}, "[2]": {"tested_on": "BR1282 TNBC PDX tumor", "assay": "second PDX combination study (compound of formula (I) first), BR1282", "experimental": "In a second PDX study, the same model was used as for the first study (TNBC BR1282 PDX model), but this time compound of formula (I) (8 mg/kg, i.v., qw, 5 mL/kg) was administered first and carboplatin (60 mg/kg, i.v., qw, 6 mL/kg) second using a 4 h gap between both administrations and compound of formula (I) was provided qw. Consequently, the mice received both compounds on the same day (4 h gap).\nas §1, §2, §3"}, "[3]": {"tested_on": "SKOV-3 s.c. xenografts", "assay_type": "in vivo", "details": "day 23; monotherapy: Formula (I) 7 mg/kg iv 2qw; Carboplatin 60 mg/kg iv qw", "experimental": "The anti-tumor activity of the compound of formula (I) in combination with carboplatin was evaluated in an ovarian cancer model, using human SKOV-3 cells grown as a solid tumor xenograft subcutaneously (s.c.) in nude mice.\nThe maximum tolerated dose (MTD) of the compound of formula (I) in combination with an optimal dose of carboplatin was defined in non-tumor bearing BALB/c nude mice in the experiments described above. […] Thus, in this study, using a human ovarian cell line derived xenograft (CDX) model, that schedule was applied and compared directly with the same order of administration with a 1 hr or 24 hr gap between compounds. In addition, the twice-weekly schedule was compared with a weekly schedule of 7 mg/kg BAL0891 (a weekly dose well below the MTD for compound of formula (I) monotherapy) using a 4 hr gap. Treatments continued until day 24 and tumor volumes and body weight were monitored until day 51."}, "[4]": {"details": "comparator Formula (I) monotherapy"}}, "note": "Marks after values point to notes of the source that are not given here.", "data": [{"smiles": "N.N.O=C([O-])C1(C(=O)[O-])CCC1.[Pt+2]", "note": "[Carboplatin]", "values": [{"measurement": "Efficacy: ΔT/C Day 0 up to Day 31", "setting": "[1]; based on mean rate of growth (k), formula (I) 7 mg/kg 2qw i.v., carboplatin 60 mg/kg qw i.v., carboplatin first", "value": "0.75*"}, {"measurement": "Mean difference of mean rate of growth (k), Formula (I) vs. treatment", "setting": "[1]; [4]", "value": "−0.049"}, {"measurement": "Mean difference of mean rate of growth (k), Vehicle vs. treatment", "setting": "[1]; comparator Vehicle, day 0 to latest day 31", "value": 0.0350}, {"measurement": "Efficacy: ΔT/C Day 10", "setting": "[1]; mean change in tumor volume, formula (I) 7 mg/kg 2qw i.v., carboplatin 60 mg/kg qw i.v., carboplatin first", "value": 0.74}, {"measurement": "Tolerability (Day 10) ΔI/C", "setting": "[1]; mean fractional body weight change vs vehicle (BWday10/BWday0)", "value": 0.97}, {"measurement": "Tolerability (Day 10) ΔBW (%)", "setting": "[1]; mean ± SEM change in body weight, day 10", "value": "0.8 ± 1.2", "unit": "%"}, {"measurement": "Efficacy: ΔT/C Day 0 up to Day 17", "setting": "[2]; based on mean rate of growth (k), formula (I) 8 mg/kg qw first, carboplatin 60 mg/kg qw 4 h later", "value": 0.96}, {"measurement": "k means, Mean difference, Formula (I) vs. treatment", "setting": "[2]; [4]", "value": "−0.039"}, {"measurement": "Δ tumor volume on day 14, Mean difference, Formula (I) vs. treatment", "setting": "[2]; [4]", "value": "−350.8"}, {"measurement": "k means, Mean difference, Vehicle vs. treatment", "setting": "[2]; comparator Vehicle", "value": 0.007}, {"measurement": "Δ tumor volume on day 14, Mean difference, Vehicle vs. treatment", "setting": "[2]; comparator Vehicle", "value": 71.5}, {"measurement": "Efficacy: ΔT/C Day 14", "setting": "[2]; mean change in tumor volume, formula (I) 8 mg/kg qw i.v. first, carboplatin 60 mg/kg qw i.v. 4 h later", "value": 0.93}, {"measurement": "Tolerability (Day 14) ΔT/C", "setting": "[2]; mean fractional body weight change vs vehicle (BWday14/BWday0)", "value": 1.00}, {"measurement": "Tolerability (Day 14) ΔBW (%)", "setting": "[2]; mean ± SEM change in body weight, day 14", "value": "3.3 ± 2.6", "unit": "%"}, {"measurement": "ΔT/C", "setting": "[3]", "value": 0.72}]}]}
